Where two headings read alike, the source gives them in different places.
Target: α-glucosidase (E.C.3.2.1.20)
Assay: α-Glucosidase enzyme inhibition assay (PNP-G substrate, spectrophotometric)
Format: biochemical
Experimental: α-Glucosidase (E.C.3.2.1.20) enzyme inhibition assay was performed according to the slightly modified method of Matsui et al. α-glucosidase (E.C.3.2.1.20) from Saccharomyces species, purchased from Wako Pure Chemical Industries Ltd. (Wako 076-02841). The enzyme inhibition was measured spectrophotometrically at pH 6.9 and at 37° C. using 0.7 mM p-nitrophenyl-α-D-glucopyranoside (PNP-G) as a substrate and 500 m units/mL enzyme, in 50 mM sodium phosphate buffer containing 100 mM NaCl. […] The increment in absorption at 400 nm, due to the hydrolysis of PNP-G by α-glucosidase, was monitored continuously on microplate spectrophotometer (Spectra Max Molecular Devices, USA).) [T. Matsui, C. Yoshimoto, K. Osajima, T. Oki, and Y. Osajima. Biosci. Biotech. Biochem., 1996, 60, 2019].

[1] = in vitro, pH 6.9, 37° C., 0.7 mM PNP-G substrate, 500 m units/mL enzyme, read-out: IC50 ± SEM
[2] = running text b24, unit inferred, read-out: IC50 (inhibitory effect on the enzyme)

IC50 [1]	IC50 [2]	SMILES
407 ± 20 µM	407 ± 20 µM	C[C@@]12CCC[C@@](C)(C(=O)O[C@@H]3O[C@H](CO)[C@@H](O)[C@H](O)[C@H]3O)[C@H]1CC[C@@]13C[C@@H](CC[C@H]12)[C@@](O)(CO)C3 (single isomer, unassigned; ent-1) [Compound 1, 16, β-17-hydroxy-ent-1-α-auzan 19-O-D-glucopyranosyl ester]
62.2 µM	62.2 ± 0.008 µM	C[C@@]12CCC[C@@](C)(C(=O)O)[C@H]1CC[C@@]13C[C@@H](CC[C@H]12)[C@@](O)(CO)C3 (single isomer, unassigned; ent-16) [Compound 2, ent-16,17-dihydroxy-(−)-kauran-19-oic acid]
